This note sets out measurements from patent publication US8586591B2, “Aminopyrazine derivative and medicine” (Nippon Shinyaku Co., Ltd., priority 2009, dated 2013).

Structures can show the parent of a compound that is named as a salt.

Assay [1] concerns the target T1, JAK2 tyrosine kinase (Homo sapiens, UniProt O60674).
T1 construct: purchased Carnabioscience Co
Nature of the assay: Test 1: inhibitory activity to JAK2 tyrosine kinase (ELISA). It is filed as biochemical. The conditions noted are these: 25 μM ATP in substrate solution, 30° C. for 1 hour, n=2. In short, it runs like this:
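This is an ELISA read at A450 (HRP anti-phosphotyrosine antibody, TMB) of biotin-peptide phosphorylation captured on streptavidin. Enzyme solution was 0.75 nM JAK2, and the substrate solution was 625 nM peptide with 25 μM ATP in Tris pH 7.5 buffer. The reaction ran 1 h at 30 °C with compounds in duplicate, and IC50 was fitted non-linearly.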

Assay [2] has as its target T2, JAK3 tyrosine kinase (Homo sapiens, UniProt P52333).
T2 construct: purchased Carnabioscience Co
T2 sequence (P52333 1-1124): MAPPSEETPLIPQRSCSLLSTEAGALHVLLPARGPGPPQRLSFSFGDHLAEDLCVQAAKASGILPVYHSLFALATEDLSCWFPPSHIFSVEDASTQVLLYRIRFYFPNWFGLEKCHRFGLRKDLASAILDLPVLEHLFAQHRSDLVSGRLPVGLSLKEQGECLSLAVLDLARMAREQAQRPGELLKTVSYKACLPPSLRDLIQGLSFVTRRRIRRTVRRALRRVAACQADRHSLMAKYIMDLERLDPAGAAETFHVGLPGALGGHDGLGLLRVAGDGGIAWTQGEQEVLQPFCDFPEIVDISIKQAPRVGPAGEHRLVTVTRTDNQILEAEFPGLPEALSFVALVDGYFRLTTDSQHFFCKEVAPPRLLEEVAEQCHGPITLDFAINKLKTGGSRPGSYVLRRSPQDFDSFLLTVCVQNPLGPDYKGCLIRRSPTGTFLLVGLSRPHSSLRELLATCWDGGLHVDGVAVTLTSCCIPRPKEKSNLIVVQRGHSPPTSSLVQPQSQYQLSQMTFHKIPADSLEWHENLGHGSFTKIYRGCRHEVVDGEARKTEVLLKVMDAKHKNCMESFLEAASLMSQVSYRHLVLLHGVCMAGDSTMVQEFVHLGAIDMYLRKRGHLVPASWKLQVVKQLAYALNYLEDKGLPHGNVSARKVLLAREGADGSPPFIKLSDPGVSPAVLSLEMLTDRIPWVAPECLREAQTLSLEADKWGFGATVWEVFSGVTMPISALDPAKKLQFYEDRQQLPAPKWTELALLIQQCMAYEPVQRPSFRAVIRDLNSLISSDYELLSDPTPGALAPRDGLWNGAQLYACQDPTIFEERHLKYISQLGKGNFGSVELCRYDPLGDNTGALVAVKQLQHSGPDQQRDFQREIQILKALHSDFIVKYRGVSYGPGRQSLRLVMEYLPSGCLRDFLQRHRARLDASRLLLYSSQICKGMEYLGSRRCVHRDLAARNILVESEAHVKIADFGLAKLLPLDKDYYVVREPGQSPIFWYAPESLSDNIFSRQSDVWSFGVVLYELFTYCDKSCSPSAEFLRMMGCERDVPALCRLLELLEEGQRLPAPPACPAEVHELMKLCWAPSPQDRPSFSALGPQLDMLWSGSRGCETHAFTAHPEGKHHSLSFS
Nature of the assay: Test 1: inhibitory activity to JAK3 tyrosine kinase (ELISA). The conditions noted are these: 25 μM ATP in substrate solution, 30° C. for 1 hour, n=2. The assay is classed as biochemical. In a few lines:
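ELISA of JAK3 kinase activity with absorbance read at 450 nm. Compounds were tested from DMSO dilution series at 100-fold the measurement concentrations (1000–0.01 μM), diluted up to 20 times in assay buffer, against a DMSO negative control. IC50 was estimated by non-linear regression of absorbance.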

T1 sequence (O60674 whole entry): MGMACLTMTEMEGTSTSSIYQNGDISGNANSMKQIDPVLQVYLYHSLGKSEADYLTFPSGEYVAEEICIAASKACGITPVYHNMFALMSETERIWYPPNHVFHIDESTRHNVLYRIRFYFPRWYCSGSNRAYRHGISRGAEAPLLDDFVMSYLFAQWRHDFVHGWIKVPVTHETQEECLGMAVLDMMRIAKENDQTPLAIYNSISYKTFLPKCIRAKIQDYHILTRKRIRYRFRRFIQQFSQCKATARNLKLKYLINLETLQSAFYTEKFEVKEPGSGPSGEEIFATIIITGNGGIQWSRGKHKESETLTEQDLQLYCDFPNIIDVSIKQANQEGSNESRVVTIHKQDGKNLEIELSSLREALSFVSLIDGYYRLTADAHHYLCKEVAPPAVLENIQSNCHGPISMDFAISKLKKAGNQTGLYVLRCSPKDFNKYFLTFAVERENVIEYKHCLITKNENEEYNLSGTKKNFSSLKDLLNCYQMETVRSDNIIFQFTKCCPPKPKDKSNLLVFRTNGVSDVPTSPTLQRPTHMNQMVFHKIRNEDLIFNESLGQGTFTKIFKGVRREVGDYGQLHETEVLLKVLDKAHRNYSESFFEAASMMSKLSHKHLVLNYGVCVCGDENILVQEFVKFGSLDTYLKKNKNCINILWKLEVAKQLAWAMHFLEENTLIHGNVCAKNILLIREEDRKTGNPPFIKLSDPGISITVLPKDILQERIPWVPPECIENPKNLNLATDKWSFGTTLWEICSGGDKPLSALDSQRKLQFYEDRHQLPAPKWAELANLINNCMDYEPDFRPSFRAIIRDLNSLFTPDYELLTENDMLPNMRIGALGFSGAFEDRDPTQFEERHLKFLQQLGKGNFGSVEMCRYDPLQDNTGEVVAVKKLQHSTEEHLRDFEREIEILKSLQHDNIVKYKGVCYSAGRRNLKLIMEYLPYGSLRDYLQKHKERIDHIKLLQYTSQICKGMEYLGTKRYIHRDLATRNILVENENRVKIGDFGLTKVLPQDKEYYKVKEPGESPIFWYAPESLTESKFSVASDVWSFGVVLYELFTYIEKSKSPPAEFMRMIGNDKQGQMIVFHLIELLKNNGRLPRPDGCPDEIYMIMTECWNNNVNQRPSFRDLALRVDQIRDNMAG

Take `C[C@H](Nc1cc(C(=O)NCC(F)(F)F)cc(Nc2cnccn2)n1)c1ccc(F)cc1` [Example 171, (S)-2-[1-(4-Fluorophenyl)ethylamino]-6-(pyrazin-2-ylamino)-N-(2,2,2-trifluoroethyl) isonicotinamide]: the values for the IC50 in assay [1] and in assay [2] were 0.0019 µM and 0.57 µM, respectively.
On the same counts, the results for `C[C@H](Nc1cc(C(=O)NCCCO)cc(Nc2cnccn2)n1)c1ccc(F)cc1` [Example 172, (S)-2-[1-(4-Fluorophenyl)ethylamino]-N-(3-hydroxypropyl)-6-(pyrazin-2-ylamino)isonicotinamide] are 0.00085 µM and 0.15 µM.
On the same counts, the results for `CCOCCNC(=O)c1cc(Nc2cnccn2)nc(N[C@@H](C)c2ccc(F)cc2)c1` [Example 173, (S)—N-(2-Ethoxyethyl)-2-[1-(4-fluorophenyl)ethylamino]-6-(pyrazin-2-ylamino)isonicotinamide] are 0.0015 µM and 0.2 µM.
On the same counts, the results for `CNC(=O)C1CN(c2cc(Nc3cnccn3)nc(N[C@@H](C)c3ccc(F)cc3)n2)C1` [Example 174] are 0.00099 µM and 0.047 µM.
`COCc1cc(Nc2cnccn2)nc(N[C@@H](C)c2ccc(F)cc2)c1` [Example 175, (S)—N^2-[1-(4-Fluorophenyl)ethyl]-4-(methoxymethyl)-N^6-(pyrazin-2-yl)pyridine-2,6-diamine]: the half-inhibitory concentration (IC50) in assay [1] was found to be 0.0049 µM; in assay [2], 0.4 µM.
On the same counts, the results for `C[C@H](Nc1nc(Nc2cnccn2)cc(N2CC(NS(C)(=O)=O)C2)n1)c1ccc(F)cc1` [Example 177, (S)—N-(1-{2-[1-(4-Fluorophenyl)ethylamino]-6-(pyrazin-2-ylamino)pyrimidin-4-yl}azetidin-3-yl)methanesulfonamide] are 0.00074 µM and 0.087 µM.
Turning to `C[C@H](Nc1nc(Nc2cnccn2)cc(N2CC(C#N)C2)n1)c1ccc(F)cc1` [Example 178, (S)-1-{2-[1-(4-Fluorophenyl)ethylamino]-6-(pyrazin-2-ylamino)pyrimidin-4-yl}azetidine-3-carbonitrile], the concentration for half-maximal inhibition (IC50) in assay [1] amounted to 0.001 µM; in assay [2] it was 0.082 µM.
On the same counts, the results for `Cn1cc(-c2cc(Nc3cnccn3)nc(NC(CO)c3ccc(F)cc3)c2)cn1` (stereo not drawn) [Example 179, 2-(4-Fluorophenyl)-2-[4-(1-methyl-1H-pyrazol-4-yl)-6-(pyrazin-2-ylamino)pyridin-2-ylamino]ethanol] are 0.0026 µM and 0.33 µM.
On the same counts, the results for `CCNC(=O)C1CN(c2cc(Nc3cnccn3)nc(N[C@@H](C)c3ccc(F)cc3)n2)C1` [Example 180, (S)—N-Ethyl-1-{2-[1-(4-fluorophenyl)ethylamino]-6-(pyrazin-2-ylamino)pyrimidin-4-yl}azetidine-3-carboxamide] are 0.0025 µM and 0.052 µM.
On the same counts, the results for `CCN(CC)C(=O)C1CN(c2cc(Nc3cnccn3)nc(N[C@@H](C)c3ccc(F)cc3)n2)C1` [Example 181, (S)—N,N-Diethyl-1-{2-[1-(4-fluorophenyl)ethylamino]-6-(pyrazin-2-ylamino)pyrimidin-4-yl}azetidine-3-carboxamide] are 0.0022 µM and 0.056 µM.
On to `CC(=O)c1cc(Nc2cnccn2)nc(N[C@@H](C)c2ccc(F)cc2)c1` [Example 182, (S)-1-{2-[1-(4-Fluorophenyl)ethylamino]-6-(pyrazin-2-ylamino)pyridin-4-yl}ethanone hydrochloride], for which the half-maximal inhibitory concentration (IC50) was determined as 0.0064 µM in assay [1] and 0.44 µM in assay [2].
On the same counts, the results for `COC1CN(c2cc(Nc3cnccn3)nc(N[C@@H](C)c3ccc(F)cc3)n2)C1` [Example 183, (S)—N^2-[1-(4-Fluorophenyl)ethyl]-6-(3-methoxyazetidin-1-yl)-N^4-(pyrazin-2-yl)pyrimidine-2,4-diamine hydrochloride] are 0.0018 µM and 0.059 µM.
The matching figures for `C[C@H](Nc1nc(Nc2cnccn2)cc(N2CC(C)(O)C2)n1)c1ccc(F)cc1` [Example 184, (S)-1-{2-[1-(4-Fluorophenyl)ethylamino]-6-(pyrazin-2-ylamino)pyrimidin-4-yl}-3-methylazetidin-3-ol hydrochloride]: 0.00092 µM and 0.045 µM.
The matching figures for `CNC(=O)c1ccc(Nc2cnccn2)nc1N[C@@H](C)c1ccc(F)cc1` [Example 185, (S)-2-[1-(4-Fluorophenyl)ethylamino]-N-methyl-6-(pyrazin-2-ylamino)nicotinamide]: 0.0042 µM and 0.38 µM.
Turning to `C[C@H](Nc1nc(Nc2cnccn2)ccc1C(=O)N(C)C)c1ccc(F)cc1` [Example 186, (S)-2-[1-(4-Fluorophenyl)ethylamino]-N,N-dimethyl-6-(pyrazin-2-ylamino) nicotinamide], the IC50 in assay [1] amounted to 0.0055 µM; in assay [2] it was 0.24 µM.
With `C[C@H](Nc1nc(Nc2cnccn2)ccc1C(N)=O)c1ccc(F)cc1` [Example 187, (S)-2-[1-(4-Fluorophenyl)ethylamino]-6-(pyrazin-2-ylamino) nicotinamide], the IC50 was found to be 0.0024 µM in assay [1] and 0.4 µM in assay [2].
Consider `C[C@H](Nc1nc(Nc2cnccn2)ccc1C(=O)N1CCOCC1)c1ccc(F)cc1` [Example 188, (S)-{2-[1-(4-Fluorophenyl)ethylamino]-6-(pyrazin-2-ylamino)pyridin-3-yl}(morpholino)methanone dihydrochloride], for which the IC50 stood at 0.0037 µM in assay [1] and 0.12 µM in assay [2].
On the same counts, the results for `C[C@H](Nc1nc(Nc2cnccn2)ccc1C(=O)NCC1CC1)c1ccc(F)cc1` [Example 189, (S)—N-(Cyclopropylmethyl)-2-[1-(4-fluorophenyl)ethylamino]-6-(pyrazin-2-ylamino)nicotinamide] are 0.012 µM and 1.5 µM.
The matching figures for `CCS(=O)(=O)NC1CN(c2cc(Nc3cnccn3)nc(N[C@@H](C)c3ccc(F)cc3)n2)C1` [Example 190, (S)—N-(1-{2-[1-(4-Fluorophenyl)ethylamino]-6-(pyrazin-2-ylamino)pyrimidin-4-yl}azetidin-3-yl)ethanesulfonamide]: 0.0012 µM and 0.058 µM.
The matching figures for `CC(C)NC(=O)C1CN(c2cc(Nc3cnccn3)nc(N[C@@H](C)c3ccc(F)cc3)n2)C1` [Example 191, (S)-1-{2-[1-(4-Fluorophenyl)ethylamino]-6-(pyrazin-2-ylamino)pyrimidin-4-yl}-N-isopropylazetidine-3-carboxamide]: 0.0014 µM and 0.031 µM.
Regarding `C[C@H](Nc1nc(Nc2cnccn2)cc(N2CC(O)(C(F)(F)F)C2)n1)c1ccc(F)cc1` [Example 192, (S)-1-{2-[1-(4-Fluorophenyl)ethylamino]-6-(pyrazin-2-ylamino)pyrimidin-4-yl}-3-(trifluoromethyl)azetidin-3-ol hydrochloride], the IC50 in assay [1] was determined as 0.0019 µM; in assay [2], 0.12 µM.
The matching figures for `C[C@H](Nc1nc(Nc2cnccn2)cc(N2CC(C(=O)N3CCCC3)C2)n1)c1ccc(F)cc1` [Example 193, (S)-(1-{2-[1-(4-Fluorophenyl)ethylamino]-6-(pyrazin-2-ylamino)pyrimidin-4-yl}azetidin-3-yl)(pyrrolidin-1-yl)methanone]: 0.0008 µM and 0.035 µM.
As for `COCCNC(=O)C1CN(c2cc(Nc3cnccn3)nc(N[C@@H](C)c3ccc(F)cc3)n2)C1` [Example 194, (S)-1-{2-[1-(4-Fluorophenyl)ethylamino]-6-(pyrazin-2-ylamino)pyrimidin-4-yl}-N-(2-methoxyethyl) azetidine-3-carboxamide], the concentration for half-maximal inhibition (IC50) in assay [1] worked out at 0.00079 µM; in assay [2], 0.084 µM.
For `C[C@H](Nc1nc(Nc2cnccn2)cc(N2CC(C(=O)N3CCCCC3)C2)n1)c1ccc(F)cc1` [Example 195, (S)-(1-{2-[1-(4-Fluorophenyl)ethylamino]-6-(pyrazin-2-ylamino)pyrimidin-4-yl}azetidin-3-yl)(piperidin-1-yl)methanone], the concentration for half-maximal inhibition (IC50) was 0.0012 µM in assay [1] and 0.05 µM in assay [2].
